Laboratory results taken from PubChem BioAssay (NCI).
“And” between values parts separate entries of the source, which are not always exact repeats. Equal values may be shown once.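 Growth conditions: 96-well plates. Treatment: test compound, 48 hours, 5 concentrations. Analysis: linear interpolation between bracketing concentrations; unreached endpoints set to highest concentration. At the GI50, growth is halved. Definition used: TGI = concentration required for complete inhibition of growth.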

How the values were obtained:
Test in all cases: inhibition of tumour cell growth, NCI panel, 48 h
NCI-H460 lung = test system: NCI-H460 lung
HOP-92 NSCLC = test system: HOP-92 NSCLC
COLO 205 colon = test system: COLO 205 colon
A549 NSCLC = test system: A549 NSCLC
HCC-2998 colon = test system: HCC-2998 colon
SNB-75 CNS = test system: SNB-75 CNS
HOP-62 NSCLC = test system: HOP-62 NSCLC
SR leukemia = test system: SR leukemia
OVCAR-5 ovarian = test system: OVCAR-5 ovarian
SK-OV-3 ovarian = test system: SK-OV-3 ovarian

Structure (SMILES) | TGI (NCI-H460 lung) | TGI (HOP-92 NSCLC) | TGI (COLO 205 colon) | TGI (A549 NSCLC) | TGI (HCC-2998 colon) | TGI (SNB-75 CNS) | TGI (HOP-62 NSCLC) | TGI (SR leukemia) | TGI (OVCAR-5 ovarian) | TGI (SK-OV-3 ovarian) | GI50 (NCI-H460 lung) | GI50 (HOP-92 NSCLC) | GI50 (COLO 205 colon) | GI50 (A549 NSCLC) | GI50 (HCC-2998 colon) | GI50 (SNB-75 CNS) | GI50 (HOP-62 NSCLC) | GI50 (SR leukemia) | GI50 (OVCAR-5 ovarian) | GI50 (SK-OV-3 ovarian)
Cc1cc(S(=O)(=O)Nc2nc(N)nc(N3N=CCC3C)n2)c(S)cc1Cl (centres undefined) | > 10 µM | > 10 µM | > 10 µM | > 10 µM | > 10 µM | > 10 µM | > 10 µM | > 10 µM | > 10 µM | > 10 µM |  |  |  |  |  |  |  |  |  | 
CC#CC(O)(C(=O)OC1CCCN(C)C1)C1=CC=CCC1 (centres undefined) | > 100 µM | > 100 µM | > 100 µM | > 100 µM | > 100 µM | > 100 µM | > 100 µM | > 100 µM | > 100 µM | > 100 µM |  |  |  |  |  |  |  |  |  | 
COC(=O)CCC/C=C\C[C@H]1C=CC(=O)/C1=C/C[C@@H](O)CCc1cccc(C(F)(F)F)c1 | 5.57 µM | 7.94 µM | 5.85 µM | 12.2 µM | 3.35 µM | 18.9 µM | 9.15 µM | 5.53 µM | 12.7 µM | 16.5 µM | 2.35 µM | 3.1 µM | 2.39 µM | 3.55 µM | 1.83 µM | 5.46 µM | 3.32 µM | 0.975 µM | 3.79 µM | 4.94 µM
COc1cc2nc(-c3ccc(C(F)(F)F)cc3)cc(OCCCN3CCOCC3)c2cc1OC | 13.6 µM | 4.66 µM | 10.3 µM | 20 µM | 5.57 µM | 9.51 µM | 13.1 µM | 14.3 µM | 18.8 µM | 22.4 µM | 0.639 µM | 1 µM | 0.528 µM | 1.04 µM | 1.41 µM | 2.46 µM | 1.67 µM | 0.242 µM | 1.92 µM | 5.04 µM
Nc1nc(-c2cccc([N+](=O)[O-])c2)c(Br)c(=O)[nH]1 | > 100 µM | > 100 µM | > 100 µM | > 71.4 µM | > 100 µM | > 100 µM | > 100 µM | > 100 µM | > 100 µM | > 100 µM |  |  |  |  |  |  |  |  |  | 
Cc1cc2c(CC(=O)O)[nH]nc2c(C(=O)O)c1C | > 100 µM | > 100 µM | > 100 µM | > 100 µM | > 100 µM | > 100 µM | > 100 µM | > 100 µM | > 100 µM | > 100 µM |  |  |  |  |  |  |  |  |  | 
CCCCNc1nc(NC(C)(C)C)nc(NC(C)(C)C)n1 | > 100 µM | 24.2 µM | > 100 µM | > 100 µM | > 100 µM | 68.7 µM | > 100 µM | 12.9 µM | > 100 µM | > 100 µM | 5.13 µM | 1.38 µM | 4.44 µM | 4.41 µM | 8.05 µM | 12.8 µM | 18.7 µM | 2.8 µM | 15.2 µM | 19.4 µM
COc1cc(-c2cnn(C)c2)ccc1Nc1ncc2ccnc(N[C@@H](C)C(C)(C)C)c2n1 | > 100 µM | > 100 µM | > 100 µM | > 100 µM | > 100 µM | > 100 µM | > 100 µM | > 100 µM | > 100 µM | > 100 µM | 0.819 µM | > 56.7 µM | 1.81 µM | > 45.5 µM | > 100 µM | 3.26 µM | > 38.3 µM | 0.695 µM | 97.8 µM | > 68.1 µM
CN1CCN(Cc2ccc(NC(=O)c3cncc(C#Cc4cnc(N)c5ccc(F)cc45)c3)cc2C(F)(F)F)CC1 | 8.95 µM | 5.58 µM | 4.77 µM | 6.46 µM | 5.98 µM | 5.71 µM | 7.24 µM | 33.3 µM | 7.51 µM | 3.81 µM | 1.08 µM | 0.989 µM | 1.23 µM | 2.04 µM | 1.7 µM | 1.3 µM | 2.89 µM | 1.25 µM | 3.52 µM | 1.03 µM
CC1=C2C(O)C(C(C)CO)C(O)CC2(C)C(O)CC1 (centres undefined) | > 100 µM | > 100 µM | > 100 µM | > 100 µM | > 100 µM | > 100 µM | > 100 µM | > 100 µM | > 100 µM | > 100 µM |  |  |  |  |  |  |  |  |  | 
c1ccc2c(c1)[I+]c1ccccc1-2 | > 50 µM | > 50 µM | > 50 µM | > 50 µM | > 50 µM | > 50 µM | > 50 µM | > 50 µM | > 50 µM | > 50 µM | 33.9 µM | 18.9 µM | > 50 µM | > 50 µM | > 50 µM | 8.95 µM | 28 µM | 19.4 µM | > 50 µM | > 50 µM
CC(C)=CC(C(O)c1ccccc1)S(=O)(=O)c1nccn1C (centres undefined) | > 100 µM | > 100 µM | > 100 µM | > 100 µM | > 100 µM | > 100 µM | > 100 µM | > 100 µM | > 100 µM | > 100 µM |  |  |  |  |  |  |  |  |  | 
CC1(C)C(=O)N(c2ccccc2)C(=O)N1c1nc2ccccc2[nH]1 | > 100 µM | > 100 µM | > 100 µM | > 100 µM | > 100 µM | > 100 µM | > 100 µM | > 100 µM | > 100 µM | > 100 µM |  |  |  |  |  |  |  |  |  | 
CCOc1ccc(/C=C/C(=O)c2ccccc2)cc1 | 41.6 µM | 41.2 µM | 32.4 µM | 53.9 µM | 29.7 µM | 51.4 µM | 35.4 µM | 43.5 µM | 47.1 µM | 56 µM | 19.5 µM | 19.6 µM | 18 µM | 21.9 µM | 15.6 µM | 22.4 µM | 18.1 µM | 8.5 µM | 19.3 µM | 21.5 µM
COc1ccc2c(c1)C(=O)CC(N)C2 (centres undefined) | > 100 µM | > 100 µM | > 100 µM | > 100 µM | > 100 µM | > 100 µM | > 100 µM | > 100 µM | > 100 µM | > 100 µM |  |  |  |  |  |  |  |  |  | 
COc1ccc(NC(=O)C2C(=O)N(c3ccc(OC)cc3)C(=O)/C2=N/O)cc1 (centres undefined) | 46.4 µM | 47.8 µM | > 100 µM | > 78.7 µM | 47.2 µM | > 73.7 µM | 43.3 µM | > 100 µM | > 100 µM | 39 µM |  |  |  |  |  |  |  |  |  | 
NC(N)=N/N=C(/c1nc2ccc([N+](=O)[O-])cc2[nH]c1=O)C(O)c1ccco1 (centres undefined) | > 100 µM | > 100 µM | > 100 µM | > 100 µM | > 100 µM | > 100 µM | > 100 µM | > 100 µM | > 100 µM | > 100 µM |  |  |  |  |  |  |  |  |  | 
O=c1ccn(C2OC(CO)C(O)C2O)c(=O)[nH]1 (centres undefined) | > 1000 µM | > 1000 µM | > 1000 µM | > 1000 µM | > 1000 µM | > 1000 µM | > 1000 µM | > 1000 µM | > 1000 µM | > 1000 µM | > 1000 µM | > 1000 µM | > 1000 µM | > 1000 µM | > 1000 µM | 789 µM and > 10 µM | > 1000 µM | > 1000 µM |  | > 1000 µM
